Laboratory results reported in patent US8859463B2, “Method for controlling noxious organisms” (Sumitomo Chemical Company, Limited, priority 2009, dated 2014).

Key:
Assay type in all cases: in vivo
Ipomoea lacunosa [1] = assay: Herbicidal activity, corn pot test, Example 76; conditions: metalaxyl-M none, flumioxazin 25 g/ha, ten days after sowing
Method: In a glass container measuring 60 mm in inner diameter and 20 mm in height, 15 mg of a metalaxyl-M emulsifiable concentrate (emulsifiable concentrate containing 33.3% metalaxyl-M, manufactured by Syngenta under the trade name of Apron XL) and 25 corn seeds were placed. After capping this glass container, the metalaxyl-M emulsifiable concentrate was adhered to the corn seeds by shaking the glass container by hand. In the same manner, 33 mg of the metalaxyl-M emulsifiable concentrate was adhered to the corn seeds.
(§1) A plastic pot measuring 194 mm in inner diameter and 176 mm in height was filled with the soil. In this pot, 2 corn seeds were sown per 1 pot and 10 seeds of Ipomoea lacunosa were sown per 1 pot. On the day of sowing of the corn seeds, after sowing the corn seeds, a water diluted solution (24.5 mg of product/liter) of a flumioxazin granular wettable powder (granular wettable powder containing 51% flumioxazin, manufactured by Valent USA Corporation under the trade name of Valor SX), a water diluted solution (66.7 mg of product/liter) of a sulfentrazone granular wettable powder (granular wettable powder containing 75% sulfentrazone manufactured by FMC Corporation under the trade name of Cover), a water diluted solution (15 mg/liter) of saflufenacil and a water diluted solution (100 mg/liter) of oxyfluorfen were uniformly sprayed over a surface of the soil in each amount described in Tables 28 to 31, using a sprayer. The water diluted solutions of saflufenacil and oxyfluorfen were prepared by dissolving each predetermined amount of saflufenacil and oxyfluorfen in acetone containing 2% (w/v) Tween 20 and diluting each solution with water so as to adjust the concentration of acetone to 10% by volume.
Ten days after sowing the seeds of corn and Ipomoea lacunosa, herbicidal activity was examined.

Aulacorthum solani [2] = assay: Insecticidal effect (protective value), soybean pot test, Example 1; conditions: clothianidin none, day 6 after release
Method: (§2) The evaluation of the insecticidal effect was performed by determining the life and death of the insects at the time of the investigation and calculating the protective value according to the following equation; Protective Value (%)=100×(1−T/C) wherein the symbols have the following meanings;
(§3) C: The number of insects at the time of observation in an untreated section: and
(§4) T: The number of insects at the time of observation in a treated section.
(§5) Thereafter, the test pot was placed in a greenhouse.

Senna obtusifolia = assay: Herbicidal activity, soybean pot test, Example 58; conditions: strobilurin seed treatment none, twelve days after sowing
Method: (§6) In a plastic cup measuring 65 mm in inner diameter and 75 mm in height, 4.8 mg of a pyraclostrobin emulsifiable concentrate (emulsifiable concentrate containing 23.8% pyraclostrobin, manufactured by BASF under the trade name of Comet) and 12 soybean seeds were placed. The pyraclostrobin emulsifiable concentrate was adhered to the soybean seeds by shaking this plastic cup by hand. In the same manner, 13.2 mg of the pyraclostrobin emulsifiable concentrate was adhered to the soybean seeds. In the same manner, 4.8 mg of an azoxystrobin suspension (emulsifiable concentrate containing 22.9% azoxystrobin, manufactured by Syngenta under the trade name of Amistar) was adhered to the soybean seeds. In the same manner, 20.4 mg of an azoxystrobin suspension was adhered to the soybean seeds.
(§7) A water diluted solution of a trifloxystrobin granular wettable powder (2.6%) was prepared by adding 52 mg of a trifloxystrobin granular wettable powder (granular wettable powder containing 50% trifloxystrobin, manufactured by Bayer Crop Science Inc. under the trade name of Flint) to 1 mL of desalted water. 51.6 mg of this water diluted solution and 12 soybean seeds were placed in the plastic cup. The water diluted solution of trifloxystrobin was adhered to the soybean seeds by shaking this plastic cup by hand. In the same manner, 199.2 mg of the water diluted solution of trifloxystrobin was adhered to the soybean seeds.
(§8) A plastic pot measuring 194 mm in inner diameter and 176 mm in height was filled with the soil. In this pot, 2 soybean seeds were sown per 1 pot and 10 seeds of Ipomoea hederacea var. integriuscula and Senna obtusifolia were sown per 1 pot. On the day of sowing of the soybean seeds, after sowing the soybean seed, a flumioxazin granule (granule containing 0.25% flumioxazin, manufactured by Valent USA Corporation under the trade name of BroadStar) was uniformly scattered over a surface of the soil in the amount described in Tables 19 to 21 by hand.
(§9) Twelve days after sowing the seeds of soybean, Ipomoea hederacea var. integriuscula and Senna obtusifolia, herbicidal activity was examined.

[3] = system: Ipomoea hederacea var. integriuscula; assay: Herbicidal activity, soybean pot test, Example 58; conditions: strobilurin seed treatment none, twelve days after sowing
Method: as §6, §7, §8, §9

Aulacorthum solani [4] = assay: Insecticidal effect (protective value), soybean pot test, Example 2; conditions: thiamethoxam none; flumioxazin 50 g/ha; day 6 after release
Method: as §2, §3, §4, §5

Ipomoea hederacea = assay: Herbicidal effect, soybean Wagner pot test, Example 6; conditions: clothianidin none; flumioxazin 25 g/ha; day 11 after sowing; scale 0 to 100
Source text: A soil was packed in a 1/5000a Wagner pot. The above soybean seeds were sown in the Wagner pot at a rate of two seeds per pot, and the seeds of Ipomoea hederacea were sown in the pot at a rate of three seeds per pot.
On day 11 after sowing of the seeds of soybean and Ipomoea hederacea, the herbicidal effect and phytotoxicity were examined.

Ipomoea lacunosa [5] = assay: Herbicidal activity, corn pot test, Example 59; conditions: pyraclostrobin none, flumioxazin 25 g/ha, twelve days after sowing
Method: In a glass container measuring 60 mm in inner diameter and 20 mm in height, 8 mg of a pyraclostrobin emulsifiable concentrate (emulsifiable concentrate containing 23.8% pyraclostrobin, manufactured by BASF under the trade name of Comet) and 25 corn seeds were placed. After capping a glass container, the pyraclostrobin emulsifiable concentrate was adhered to the corn seeds by shaking the glass container by hand. In the same manner, 22 mg of the pyraclostrobin emulsifiable concentrate was adhered to the corn seeds.
as §1, with “75% sulfentrazone,” for “75% sulfentrazone”, “Tables 22” for “Tables 28”, “to 25,” for “to 31,”
Twelve days after sowing the seeds of corn and Ipomoea lacunose, herbicidal activity was examined.

Compound: C#CCN1C(=O)COc2cc(F)c(N3C(=O)C4=C(CCCC4)C3=O)cc21 [Flumioxazin, flumioxazin]
- Herbicidal activity (Ipomoea lacunosa [1]): 40
- Protective Value (Aulacorthum solani [2]; flumioxazin 12.5 g/ha): 0%
- Protective Value (Aulacorthum solani [2]; flumioxazin 25 g/ha): 0%
- Herbicidal activity Senna obtusifolia (Senna obtusifolia; flumioxazin 25 g/ha): 20
- Herbicidal activity Senna obtusifolia (Senna obtusifolia; flumioxazin 100 g/ha): 45
- Herbicidal activity Ipomoea hederacea var. integriuscula ([3]; flumioxazin 25 g/ha): 25
- Herbicidal activity Ipomoea hederacea var. integriuscula ([3]; flumioxazin 100 g/ha): 85
- Protective Value (Aulacorthum solani [4]): 0%
- Evaluation of Effect on Weeds (Ipomoea hederacea): 25
- Herbicidal activity (Ipomoea lacunosa [5]): 40
